Measured values from patent US20180305657A1, “Bioactive Fungi” (Agriculture Victoria Services PTY LTD, priority 2015, published 2018).
Where two headings read alike, the source gives them in different places.

Legend:
Tribolium castaneum = test system: Tribolium castaneum
Description: A total of 20 chemical standards were evaluated for their insecticidal activity against the stored grain pest, Tribolium castaneum. These chemical standards represented compounds in the volatolome of Daldinia sp. or were structural analogues of these compounds (Table 5). […] The insect pest was inoculated on to one half of the Petri plate by placing 4 insects onto feed (wheat flour and yeast). A chemical standard was then aliquoted (5 microlitre) on to the other half of the Petri plate on filter paper. Plates were immediately sealed with Parafilm®, covered in aluminium foil (i.e. in the dark) and maintained at room temperature. The mortality of insects was monitored daily by assessing insect movement as an indicator of mortality. The mortality was calculated by comparing the number of dead insects to the total number in the plate, and expressed as percentage mortality (Tables 6). Data were analysed using ANOVA as performed in GenStat, version 14. The experiment was fully randomised with 5 replicates for each endophyte.

Fusarium verticillioides = test: Fungicidal bioassay, compounds alone or in synergy; assay type: cell-based; conditions: for % Inhibition (v control): 4 days; for fungicidal activity against F. verticillioides: in isolation; for inhibition of growth of the pathogen: in isolation and in combination with any of the compounds tested
Description: A fungicidal bioassay was established to evaluate the effect of key compounds from the volatolome of Daldinia sp. against the plant pathogenic fungus, Fusarium verticillioides, when applied alone and in synergy with other compounds from the volatolome of Daldinia sp. The pathogen was inoculated on to one third of the Petri plate by placing an agar plug of actively growing hyphae onto PDA. Candidate compounds were then aliquoted (10 microlitres) on to another third of the Petri plate on filter paper. […] After 4 days the growth of the pathogen was determined by measuring the radius of the colony (on two alternate planes).

T. castaneum = test system: T. castaneum
Description: The bioassays were conducted in 1 litre Schott bottles. The insect pest was inoculated into the bioassay by placing 9-12 insects onto feed (wheat flour and yeast). The biocidal compounds were then aliquoted into the bioassay at volumes ranging from 20-200 microlitres, ensuring no direct contact with the insect. Bottles were immediately sealed with Parafilm® and maintained at room temperature. The mortality of insects was monitored daily for three days exposure, by assessing insect movement as an indicator of mortality. The mortality was calculated by comparing the number of dead insects to the total number in the bioassay, and expressed as percentage mortality. Data were analysed using ANOVA as performed in GenStat, version 14. The experiment was fully randomised with 4 replicates for each endophyte.

Pseudomonas syringae = test: Bactericidal bioassay, compounds alone or in synergy; assay type: cell-based; conditions: for Growth Scale: compound alone, 10 μL, 3 days, 2 equivalent growth to control, 1 less growth, 0 no growth; for activity against P. syringae: used alone (acetaldehyde, isovaleraldehyde: alone or in combination)
Description: A bactericidal bioassay was established to evaluate the effect of the most insecticidal candidate compounds against the plant pathogenic bacterium Pseudomonas syringae, when applied alone or in synergy with other compounds from the volatolome of Daldinia sp. The pathogen was inoculated on to one third of the Petri plate by streaking bacterial cells from an actively growing culture (overnight) on to nutrient agar (NA). A candidate compound was then aliquoted (10 microlitres—except Acetaldehyde: 20 microlitres due to high volatility) onto another third of the Petri plate on filter paper. […] An untreated control was included and consisted of no compounds.

In the case of `C1=CCCCC=C1` [1,3 Cycloheptadiene, 1,3-cycloheptadiene], the “% Mortality Day 1” value (Tribolium castaneum; 5 microlitre, Day 1) is reported as 12.5%, the “% Mortality Day 2” value (Tribolium castaneum; 5 microlitre, Day 2) is reported as 20.8% and the “% Mortality Day 3” value (Tribolium castaneum; 5 microlitre, Day 3) is reported as 27.5%. For the same compound, the “% Mortality Day 4” value (Tribolium castaneum; 5 microlitre, Day 4) was 27.5%.

For `CC1=CCC=CC1` [1-Methyl-1,4-cyclohexadiene], the “% Mortality Day 1” value (Tribolium castaneum; 5 microlitre, Day 1) was 0.0%, the “% Mortality Day 2” value (Tribolium castaneum; 5 microlitre, Day 2) was 0.0% and the “% Mortality Day 3” value (Tribolium castaneum; 5 microlitre, Day 3) was 0.0%. For the same compound, the “% Mortality Day 4” value (Tribolium castaneum; 5 microlitre, Day 4) was 0.0%.

For `CC(=O)C(C)=O` [2,3 Butanedione, 2,3-butanedione], the “% Mortality Day 1” value (Tribolium castaneum; in vivo) was 0.0%, the “% Mortality Day 2” value (Tribolium castaneum; in vivo) was 0.0% and the “% Mortality Day 3” value (Tribolium castaneum; in vivo) was 0.0%. For the same compound, the “% Mortality Day 4” value (Tribolium castaneum; in vivo) was 0.0% and the “mortality grouping in title of Table 5” value (Tribolium castaneum; in vivo) was 1,4-cyclohexadiene, Toluene, 2,3 Butanedione, Ethanol: 0% mortality).

`CCC(C)CO` (stereo not shown) [2-Methyl-1-butanol] was tested, and the “% Mortality Day 1” value (Tribolium castaneum; 5 microlitre, Day 1) was 80.0%, the “% Mortality Day 2” value (Tribolium castaneum; 5 microlitre, Day 2) was 80.0% and the “% Mortality Day 3” value (Tribolium castaneum; 5 microlitre, Day 3) was 80.0%. The “% Mortality Day 4” value (Tribolium castaneum; 5 microlitre, Day 4) was 80.0%.

With `CCCC(C)O` (stereo not shown) [2-Pentanol] the “% Mortality Day 1” value (Tribolium castaneum; 5 microlitre, Day 1) was 0.0%, the “% Mortality Day 2” value (Tribolium castaneum; 5 microlitre, Day 2) was 0.0% and the “% Mortality Day 3” value (Tribolium castaneum; 5 microlitre, Day 3) was 0.0%. The “% Mortality Day 4” value (Tribolium castaneum; 5 microlitre, Day 4) was 0.0%.

With `CC(C)CCO` [3-Methyl-1-butanol] the “% Mortality Day 1” value (Tribolium castaneum; in vivo) was 45.0%, the “% Mortality Day 2” value (Tribolium castaneum; in vivo) was 45.0% and the “% Mortality Day 3” value (Tribolium castaneum; in vivo) was 50.0%. The “% Mortality Day 4” value (Tribolium castaneum; in vivo) was 50.0%.

For `CCC(O)CC` [3-Pentanol], the “% Inhibition (v control)” value (Fusarium verticillioides; compound alone, 10 uL) was 47.3%, the “fungicidal activity against F. verticillioides” value (“fungicidal activity” below) (Fusarium verticillioides) was “moderate fungicidal activity” and the “% Mortality Day 1” value (Tribolium castaneum; 5 microlitre, Day 1) was 100.0%. The “% Mortality Day 2” value (Tribolium castaneum; 5 microlitre, Day 2) was 100.0%, the “% Mortality Day 3” value (Tribolium castaneum; 5 microlitre, Day 3) was 100.0% and the “% Mortality Day 4” value (Tribolium castaneum; 5 microlitre, Day 4) was 100.0%. For the same compound, the “mortality after a 1 day exposure, 20 μL” value (T. castaneum; in vivo) was 100%, the “mortality after a 1 day exposure, 50 μL” value (T. castaneum; in vivo) was 100% and the “mortality after a 1 day exposure, 100 μL” value (T. castaneum; in vivo) was 100%. For the same compound, the “mortality after a 1 day exposure, 150 μL” value (T. castaneum; in vivo) was 100%, the “mortality after a 1 day exposure, 200 μL” value (T. castaneum; in vivo) was 100% and the “mortality after one day” value (T. castaneum; in vivo) was 100%. The “Growth Scale” value (Pseudomonas syringae) was 2 and the “activity against P. syringae” value (Pseudomonas syringae) was “did not exhibit any activity”.

In the case of `CC(=O)CCO` [4-Hydroxy-2-butanone], the “% Mortality Day 1” value (Tribolium castaneum; 5 microlitre, Day 1) is reported as 4.0%, the “% Mortality Day 2” value (Tribolium castaneum; 5 microlitre, Day 2) is reported as 4.0% and the “% Mortality Day 3” value (Tribolium castaneum; 5 microlitre, Day 3) is reported as 4.0%. The “% Mortality Day 4” value (Tribolium castaneum; 5 microlitre, Day 4) was 4.0%.

In the case of `CC1CC=CCC1` (stereo not shown) [4-Methylcyclohexene], the “% Mortality Day 1” value (Tribolium castaneum; 5 microlitre, Day 1) is reported as 4.0%, the “% Mortality Day 2” value (Tribolium castaneum; 5 microlitre, Day 2) is reported as 13.7% and the “% Mortality Day 3” value (Tribolium castaneum; 5 microlitre, Day 3) is reported as 17.7%. The “% Mortality Day 4” value (Tribolium castaneum; 5 microlitre, Day 4) was 17.7%.

With `CC=O` [Acetaldehyde] the “fungicidal activity” value (Fusarium verticillioides) was “high fungicidal activity”, the “inhibition of growth of the pathogen” value (Fusarium verticillioides) was 100% and the “% Mortality Day 1” value (Tribolium castaneum; 5 microlitre, Day 1) was 36.0%. The “% Mortality Day 2” value (Tribolium castaneum; 5 microlitre, Day 2) was 36.0%, the “% Mortality Day 3” value (Tribolium castaneum; 5 microlitre, Day 3) was 36.0% and the “% Mortality Day 4” value (Tribolium castaneum; 5 microlitre, Day 4) was 36.0%. For the same compound, the “mortality after a 1 day exposure, 20 μL” value (T. castaneum; Volume 20 μL in 1 litre bottle, 1 day) was 2.3%, the “mortality after a 1 day exposure, 50 μL” value (T. castaneum; Volume 50 μL in 1 litre bottle, 1 day) was 28.3% and the “mortality after a 1 day exposure, 100 μL” value (T. castaneum; Volume 100 μL in 1 litre bottle, 1 day) was 98.2%. The “mortality after a 1 day exposure, 150 μL” value (T. castaneum; Volume 150 μL in 1 litre bottle, 1 day) was 100%, the “mortality after a 1 day exposure, 200 μL” value (T. castaneum; Volume 200 μL in 1 litre bottle, 1 day) was 100% and the “mortality after a 1 day exposure” value (T. castaneum; volumes ranging from 100-200 microlitres) was 98.2-100.0%. The “activity against P. syringae” value (Pseudomonas syringae) was “high bactericidal activity”.

For `CC(=O)C(C)O` (stereo not shown) [Acetoin, acetoin], the “% Inhibition (v control)” value (Fusarium verticillioides; compound alone, 10 uL) was 0%, the “fungicidal activity” value (Fusarium verticillioides) was “no activity” and the “% Mortality Day 1” value (Tribolium castaneum; 5 microlitre, Day 1) was 100.0%. The “% Mortality Day 2” value (Tribolium castaneum; 5 microlitre, Day 2) was 100.0%, the “% Mortality Day 3” value (Tribolium castaneum; 5 microlitre, Day 3) was 100.0% and the “% Mortality Day 4” value (Tribolium castaneum; 5 microlitre, Day 4) was 100.0%. For the same compound, the “mortality after a 1 day exposure” value (T. castaneum; in vivo) was 100%, the “mortality after a 1 day exposure, 20 μL” value (T. castaneum; in vivo) was 3% and the “mortality after a 1 day exposure, 50 μL” value (T. castaneum; in vivo) was 100%. For the same compound, the “mortality after a 1 day exposure, 100 μL” value (T. castaneum; in vivo) was 100%, the “mortality after a 1 day exposure, 150 μL” value (T. castaneum; in vivo) was 100% and the “mortality after a 1 day exposure, 200 μL” value (T. castaneum; in vivo) was 100%. For the same compound, the “Growth Scale” value (Pseudomonas syringae) was 2 and the “activity against P. syringae” value (Pseudomonas syringae) was “did not exhibit any activity”.

`O=Cc1ccccc1` [Benzaldehyde] was tested, and the “% Mortality Day 1” value (Tribolium castaneum; 5 microlitre, Day 1) was 0.0%, the “% Mortality Day 2” value (Tribolium castaneum; 5 microlitre, Day 2) was 0.0% and the “% Mortality Day 3” value (Tribolium castaneum; 5 microlitre, Day 3) was 0.0%. For the same compound, the “% Mortality Day 4” value (Tribolium castaneum; 5 microlitre, Day 4) was 0.0%.

`CCCC=O` [Butyraldehyde] was tested, and the “% Mortality Day 1” value (Tribolium castaneum; in vivo) was 31.5%, the “% Mortality Day 2” value (Tribolium castaneum; in vivo) was 39.5% and the “% Mortality Day 3” value (Tribolium castaneum; in vivo) was 39.5%. The “% Mortality Day 4” value (Tribolium castaneum; in vivo) was 39.5%.

`CCCC(=O)O` [Butyric acid] was tested, and the “% Mortality Day 1” value (Tribolium castaneum; 5 microlitre, Day 1) was 0.0%, the “% Mortality Day 2” value (Tribolium castaneum; 5 microlitre, Day 2) was 0.0% and the “% Mortality Day 3” value (Tribolium castaneum; 5 microlitre, Day 3) was 6.9%. For the same compound, the “% Mortality Day 4” value (Tribolium castaneum; 5 microlitre, Day 4) was 6.9%.

`CCO` [Ethanol] was tested, and the “% Mortality Day 1” value (Tribolium castaneum; in vivo) was 0.0%, the “% Mortality Day 2” value (Tribolium castaneum; in vivo) was 0.0% and the “% Mortality Day 3” value (Tribolium castaneum; in vivo) was 0.0%. The “% Mortality Day 4” value (Tribolium castaneum; in vivo) was 0.0% and the “mortality grouping in title of Table 5” value (Tribolium castaneum; in vivo) was 1,4-cyclohexadiene, Toluene, 2,3 Butanedione, Ethanol: 0% mortality).

In the case of `CC(C)CC=O` [Isovaleraldehyde], the “% Inhibition (v control)” value (Fusarium verticillioides; compound alone, 10 uL) is reported as 100.0%, the “Activity (fungistatic or fungicidal)” value (Fusarium verticillioides; compound alone, 10 uL, plug on fresh PDA plate) is reported as “Fungicidal” and the “fungicidal activity” value (Fusarium verticillioides) is reported as “high fungicidal activity”. The “inhibition of growth of the pathogen” value (Fusarium verticillioides) was 100%, the “% Mortality Day 1” value (Tribolium castaneum; 5 microlitre, Day 1) was 100.0% and the “% Mortality Day 2” value (Tribolium castaneum; 5 microlitre, Day 2) was 100.0%. For the same compound, the “% Mortality Day 3” value (Tribolium castaneum; 5 microlitre, Day 3) was 100.0%, the “% Mortality Day 4” value (Tribolium castaneum; 5 microlitre, Day 4) was 100.0% and the “mortality after a 1 day exposure” value (T. castaneum; in vivo) was 100%. For the same compound, the “mortality after a 1 day exposure, 20 μL” value (T. castaneum; in vivo) was 3%, the “mortality after a 1 day exposure, 50 μL” value (T. castaneum; in vivo) was 100% and the “mortality after a 1 day exposure, 100 μL” value (T. castaneum; in vivo) was 100%. For the same compound, the “mortality after a 1 day exposure, 150 μL” value (T. castaneum; in vivo) was 100%, the “mortality after a 1 day exposure, 200 μL” value (T. castaneum; in vivo) was 100% and the “Growth Scale” value (Pseudomonas syringae) was 0.25. The “activity against P. syringae” value (Pseudomonas syringae) was “high bactericidal activity”.

For `C=C1CCCCC1` [Methylenecyclohexane], the “% Mortality Day 1” value (Tribolium castaneum; 5 microlitre, Day 1) was 8.0%, the “% Mortality Day 2” value (Tribolium castaneum; 5 microlitre, Day 2) was 8.0% and the “% Mortality Day 3” value (Tribolium castaneum; 5 microlitre, Day 3) was 16.0%. For the same compound, the “% Mortality Day 4” value (Tribolium castaneum; 5 microlitre, Day 4) was 16.0%.

`C1=CC2(C=C1)CC2` [Spiro[2.4]hepta-4,6-diene] was tested, and the “% Mortality Day 1” value (Tribolium castaneum; 5 microlitre, Day 1) was 87.1%, the “% Mortality Day 2” value (Tribolium castaneum; 5 microlitre, Day 2) was 100.0% and the “% Mortality Day 3” value (Tribolium castaneum; 5 microlitre, Day 3) was 100.0%. For the same compound, the “% Mortality Day 4” value (Tribolium castaneum; 5 microlitre, Day 4) was 100.0%.
